Assay results reported in patent US4518613A, “Thioalkanoyl-carnitines, process for their preparation and mucolytic pharmaceutical compositions containing same” (priority 1981, dated 1985).

Legend:
[1] = Mucolytic activity in vitro: modification of human sputum density by thromboelastograph (method of Morandini et al.)
Procedure: The tests were carried out in vitro by using the method disclosed by Morandini et al. (Lotta contro la tubercolosi 47, n. 4, 1977). A thromboelastograph was used to follow the variations induced by the compounds of general formula (I) and acetylcysteine on the rheological properties of human sputum.

[2] = Acute toxicity, LD50 by the Weil method, e.p. administration in mouse; conditions: in vivo, ip, Weil method N = 4, K = 4
Description: LD50 of the compounds of general formula (I) assessed with the Weil method ("Tables for convenient calculation of median effective dose (LD50 or ED50) and instructions in their use", Biometrics, 249-253, 1952), by e.p. administration in mouse is shown in Table 1.
LD50 and fiducial limits, mg/Kg e.p., of the compounds of for-
mula (I). Weil method N = 4, K = 4.

bronchial secretion = assay: Expectorant activity: bronchial secretion in anesthetized rabbits (method of Perry et al.); type: in vivo; conditions: oral, rabbit, 20 to 40 mg
Procedure: The tests were carried out on male rabbits, weighing 2-3 Kg, anesthetized with ethyl urethane, by following the method disclosed by Perry et al. (J. Pharm. Exp. Ther. 73, 65, 1941).
Each cannula was connected to a feeding device which delivered a steady flow-rate of pre-heated air (36°-38° C.) at constant humidity (80%). At the lower end of each cannula, a graduated cylinder was fitted, wherein the bronchial secretion was collected. All of the animals breathed spontaneously and consequently they self-regulated the air intake suitable for normal respiration. After an hour following cannula insertion, the animals were administered oraly (by stomach tube) the compounds of general formula (I) dissolved in distilled water at doses comprised between 20 and 40 mg. […] The control animals (8) were given water only. The amount of secretion was determined after 1, 2 and 4 hours from administration.

SMILES	Percentage drop of the tracing versus maximum peak (mucolytic activity index) ([1]; after addition of 1 ml of a 10% solution at dilution 1/30) [Percentage]	Percentage drop of the tracing versus maximum peak (mucolytic activity index) ([1]; after addition of 1 ml of a 10% solution at dilution 1/60) [Percentage]	LD50 [2] [mg/kg]	Percentage variations ± s.e. of bronchial secretion versus basal values (bronchial secretion; 1 hour after administration)	Percentage variations ± s.e. of bronchial secretion versus basal values (bronchial secretion; 2 hours after administration)	Percentage variations ± s.e. of bronchial secretion versus basal values (bronchial secretion; 4 hours after administration)
CC(=O)N[C@@H](CS)C(=O)O [Acetylcysteine, acetylcysteine]	84	55				
CC(=O)SCCC(=O)OC(CC(=O)O)C[N+](C)(C)C (centres unmarked) [ST-405, 3-thioacetyl propionyl-carnitine]			378	+1.1 ± 0.03 Percentage	+1.9 ± 0.04 Percentage	+3.6 ± 0.05 Percentage
CC(=O)SC(C)CC(=O)OC(CC(=O)O)C[N+](C)(C)C (centres unmarked) [ST-406, 3-thioacetyl butyryl carnitine]			97	+1.4 ± 0.05 Percentage	+1.9 ± 0.05 Percentage	+3.4 ± 0.04 Percentage
CC(=O)SCCCCC(=O)OC(CC(=O)O)C[N+](C)(C)C (centres unmarked) [ST-412, 5-thioacetyl pentanoyl-carnitine]			1540	+1.3 ± 0.04 Percentage	+2.1 ± 0.05 Percentage	+3.1 ± 0.03 Percentage
